Structures can show the parent of a compound that is named as a salt.
Tests used:
[1] = biological target: T1, recombinant human 5-HT2A receptor (Homo sapiens, UniProt P28223); experiment: 5-HT2A radioligand binding ([3H]Ketanserin competition); details: [3H]Ketanserin displacement, membranes of CHO-K1 cells expressing recombinant human 5-HT2A receptor, 32° C.; read-out: pKi for 5-HT2A (converted)
T1 construct: expressed in transfected cells
Description: (§1) The binding activity of compounds of this invention in vitro was determined as follows. Duplicate determinations of 5-HT6 ligand affinity were made by competing for binding of [^3H]LSD in cell membranes derived from HEK293 cells stably expressing recombinant human 5-HT6 receptor. Duplicate determinations of 5-HT2A ligand affinity were made by competing for binding of [^3H]Ketanserin (3-(2-(4-(4-fluorobenzoyl)piperidinol)ethyl)-2,4(1H,3H)-quinazolinedione) in cell membranes derived from CHO-K1 cells stably expressing recombinant human 5-HT2A receptor. Membranes were prepared from HEK 293 cell lines by the method described by Monsma et al., Molecular Pharmacology, Vol. 43 pp. 320-327 (1993), and from CHO-K1 cell lines as described by Bonhaus et al., Br J Pharmacol. June; 115(4):622-8 (1995).
(§2) For estimation of affinity at the 5-HT6 receptor, all determinations were made in assay buffer containing 50 mM Tris-HCl, 10 mM MgSO4, 0.5 mM EDTA, 1 mM ascorbic acid, pH 7.4 at 37° C., in a 250 microliter reaction volume. […]
(§3) Assay tubes containing [^3H] […] Ketanserin were determined as radioactive counts per minute using Packard TopCount.
(§4) Displacement of [^3H]LSD or [^3H]Ketanserin from the binding sites was quantified by fitting concentration-binding data to a 4-parameter logistic equation: […]

[2] = biological target: T2, recombinant human 5-HT6 receptor (Homo sapiens, UniProt P50406); experiment: 5-HT6 radioligand binding ([3H]LSD competition); details: [3H]LSD displacement, membranes of HEK293 cells expressing recombinant human 5-HT6 receptor, 37° C.; read-out: pKi for 5-HT6 (converted)
T2 construct: expressed in transfected cells
Description: as §1, §2, §3, §4

T2 sequence (P50406 whole entry): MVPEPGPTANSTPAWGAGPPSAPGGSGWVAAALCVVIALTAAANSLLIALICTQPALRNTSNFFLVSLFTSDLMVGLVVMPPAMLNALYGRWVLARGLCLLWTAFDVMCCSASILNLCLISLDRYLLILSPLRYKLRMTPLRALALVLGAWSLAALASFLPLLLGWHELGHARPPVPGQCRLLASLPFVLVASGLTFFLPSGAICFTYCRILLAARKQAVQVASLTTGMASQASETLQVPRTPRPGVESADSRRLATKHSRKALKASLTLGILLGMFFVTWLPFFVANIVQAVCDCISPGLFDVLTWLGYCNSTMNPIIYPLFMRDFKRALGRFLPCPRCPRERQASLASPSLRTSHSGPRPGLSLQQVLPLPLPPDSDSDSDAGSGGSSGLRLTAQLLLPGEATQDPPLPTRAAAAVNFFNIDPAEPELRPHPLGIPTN
T1 sequence (P28223 whole entry): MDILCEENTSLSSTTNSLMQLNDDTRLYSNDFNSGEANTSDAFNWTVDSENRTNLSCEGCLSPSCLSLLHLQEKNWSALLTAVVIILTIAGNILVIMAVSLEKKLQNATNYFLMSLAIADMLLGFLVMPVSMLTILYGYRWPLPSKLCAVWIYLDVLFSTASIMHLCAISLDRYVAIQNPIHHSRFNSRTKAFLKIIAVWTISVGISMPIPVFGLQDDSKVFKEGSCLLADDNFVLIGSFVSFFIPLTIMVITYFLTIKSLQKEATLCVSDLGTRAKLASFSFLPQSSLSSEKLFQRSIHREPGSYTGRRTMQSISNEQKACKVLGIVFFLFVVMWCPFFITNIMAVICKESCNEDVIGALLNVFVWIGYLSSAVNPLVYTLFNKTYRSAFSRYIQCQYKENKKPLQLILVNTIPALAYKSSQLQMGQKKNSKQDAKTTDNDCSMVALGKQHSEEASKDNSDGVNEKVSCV

In the case of N#Cc1cccc(S(=O)(=O)c2ccc3c(c2)CCC[C@H]3CN)c1 (as salt: oxalate) [Compound 52, (R)-3-(5-Aminomethyl-5,6,7,8-tetrahydro-naphthalene-2-sulfonyl)-benzonitrile], the melting point was 212 to 213 °C.
CC1(C)CN=C(NCC2CCCc3ccc(S(=O)(=O)c4ccccc4)cc32)NC1 (stereo not drawn) [Compound 11, (7-Benzenesulfonyl-1,2,3,4-tetrahydro-naphthalen-1-ylmethyl)-(5,5-dimethyl-1,4,5,6-tetrahydro-pyrimidin-2-yl)-amine] showed a melting point of 140 to 145 °C.
Compound CC(=N)NCC1CCCc2cc(S(=O)(=O)c3ccccc3)ccc21 (stereo not drawn) [N-(6-Benzenesulfonyl-1,2,3,4-tetrahydro-naphthalen-1-ylmethyl)-acetamidine] has a Ki [1] of ~0.282 nM.
With CNC[C@@H]1CCCc2cc(S(=O)(=O)c3cccc(OC)c3)ccc21 (as salt: HCl) [Compound 50, (R)-[6-(3-Methoxy-benzenesulfonyl)-1,2,3,4-tetrahydro-naphthalen-1-ylmethyl]-methyl-amine] the melting point was 265 to 266 °C.
For CNC[C@H]1CCCc2cc(S(=O)(=O)c3ccccc3)ccc21 (as salt: TFA) [Compound 40, (S)-(6-Benzenesulfonyl-1,2,3,4-tetrahydro-naphthalen-1-ylmethyl)-methyl-amine], the melting point was 146 to 147 °C.
In the case of N=C(N)CCC1CCCc2cc(S(=O)(=O)c3ccccc3)ccc21 (stereo not drawn) [3-(6-Benzenesulfonyl-1,2,3,4-tetrahydro-naphthalen-1-yl)-propionamidine], the Ki [2] was ~0.141 nM.

— patent publication US8889906B2, “Tetralin and indane derivatives and uses thereof” (Roche Palo Alto LLC, priority 2004, dated 2014)
